Source: patent US20250213700A1, “COMPOUNDS, COMPOSITIONS, AND METHODS FOR CELL-SPECIFIC PHARMACOLOGY” (Duke University, priority 2022, published 2025)
Where two headings read alike, the source gives them in different places.

Experiments:
[1] = test system: endogenous AMPARs; test: all-optical cultured-neuron assay of AMPAR-dependent synaptic transmission; format: cell-based, rat; details: DW=Rx50/HTL50; ddHTP vs +HTP cells, 15 min
Experimental: (§1) Cultured neuronal assays: Preparation of hippocampal cultures: Mixed glial and neuronal cultures were prepared from the hippocampus of postnatal day 0 to 1 Sprague-Dawley rat pups. Separate pools of dissociated cells were transfected via electroporation (LONZA, V4SP-3096) with plasmid constructs, and depending on assay directives, either plated individually or mixed with a different pool of electroporated cells after a 10 min recovery period. Cells were cultured on coverslips (Deckglaser) pre-treated with high molecular weight poly-D-lysine (Sigma, P7405; 0.05 mg/mL) in 24-well plates and maintained in NbActiv4 (BrainBits, Nb4-500) at 37 C, 5% CO2. Media was changed by half at DIV3 or 4 and then weekly thereafter; experiments were performed between DIV16 to DIV18.

[2] = test system: GABAAR; test: whole-mount retina, GABAAR-mediated evoked IPSC in retinal ganglion cells; format: cell-based, mouse; details: 300 nM, 15 min
Experimental: (FIG. 6A) Viral strategy (top panel). […] Experimental overview (second panel from the top to bottom panel). Top: whole retina; synaptic current is evoked (stim) and recorded (voltage-clamp of dTomato+ RGC), with ionic and pharmaceutical conditions chosen to isolate the AMPAR or GABAAR. A 10 min baseline is followed by 15 min application of 300 nM Rx^DART.2+30 nM Alexa^647.1DART.2. […] (FIG. 6B) CMPDA.2^DART.2 (left). Electropositive spacer (PDB 3RNN). […] AMPAR structural model (middle) (composite of PDB 5WEO, 3RNN, and 1FTL). Cylinder depicts cell membrane. […] YM90K.1^DART.2 (right). Structural model (PDB 1FTL). […] (FIG. 6C) diazepam.1^DART.2 (left). Structural model (PDB 6HUP). […] GABAAR (middle) structural model (composite of PDB 6HUP and 6HUK). […] Structural model (PDB 6HUK).
Preparation of Retina: Mice were intravitreal injected AAV10 HaloTag™-dTomato to eyes. After 8-12 weeks, the mice killed by cervical dislocation. Both eyes were removed and dissected under a stereo-microscope. Retinas were isolated from the eyecups and placed in oxygenated (95% O2/5% CO2) cold-Ames medium (Sigma-Aldrich), supplemented with 21 mM NaHCO3. After the vitreous body was removed, a retina was cut into 3 pieces, leaving each retina piece attached to a filter paper with 2 mm hole by retina ganglion-cell-side-down. The pieces of retina were stored in bubbled Ames solution at room temperature, then transferred to recording chamber with retina ganglion-cell-side-up for recording.
Whole-cell patch-clamp recording: The brain slices or retinas were perfused with bubbled aCSF at 29-30° C. with a 2 ml/min flow rate. Recordings were made by whole cell patch recording techniques using a Multiclamp 700B amplifier (Molecular Devices, Axon Instruments Inc., Union City, CA). The signals were filtered at 10 KHz and acquired using Digitate 1440A and pClamp 10.7 (Molecular Devices). The recording pipettes (4 MΩ-6 MΩ) were filled with internal solutions. For GABAA receptor-mediated evoked inhibitory postsynaptic currents ([…]) recording, the pipettes filled with Cesium Chloride-based internal solution (in mM) 135 CsCl, 2 MgCl2, 0.5 EGTA, 10 HEPES, 4 Mg-ATP, 0.5 Na-GTP, 10 Na2-phosphocreatine, and QX314 (lidocaine N-ethyl bromide), pH adjusted to 7.3 with CsOH (290 mosm). For AMPA-receptor mediated evoked excitatory postsynaptic currents (eEPSCs) recording, the pipette solution contained (in mM) 130 CsMeS, 1 MgCl2, 0.5 EGTA, 10 HEPES, 4 Mg-ATP, 0.5 Na-GTP, 10 Na2-phosphocreatine, and 4 QX314, pH adjusted to 7.3 with CsOH (290 mosm). For experiment of brain slices and retinas, the eIPSCs or eEPSCs were elicited by electrical stimuli at 0.067 Hz in 0.3-ms duration and 150-300-ρA (60-70% maximum responses) stimulation intensity at a holding potential of −70 mV. The stimulating electrode was placed within 60-100 μm from the recording neuron under voltage-clamp mode. GABA-receptor mediated eIPSCs were isolated in the presence of DNQX ([…] AMPAR antagonist) and AP-V ([…] antagonist) in the bath solution. For AMPA-receptor mediated eEPSCs, added picrotoxin ([…], GABAAR antagonist) and AP-V ([…]) to the bath solution.

[3] = test system: endogenous GABAAR; test: all-optical assay of GABAAR positive allosteric modulation in primary neuronal culture; format: cell-based, rat
Experimental: as §1
Diazepam/Flumazenil: Dissociated neurons were electroporated with constructs and cultured for 2 weeks. The assay was performed in a modified GABAR-BASE, with an increased KCl concentration to enhance neuronal excitability and a lowered GABA level for a baseline. Again, a DRUG plate and three DoseGroups were used as described above for dosing, but no final WASH. […] Imaging alignment, proof-reading and analysis were performed in a similar fashion to the GABAR assay using MatLab.
Next it was sought to extend DART to allosteric modulators. The allosteric binding site of the GABAAR, known to bind several drugs, with effects ranging from negative to positive allosteric modulation was first analyzed. Diazepam represents the prototypic PAM at this site, and is the most clinically significant of the class. Thus, a diazepam analog was synthesized with a short alkyne attached to the amide of the diazepam core; an attachment site known to tolerate substituents and thought from structural inspection of the GABAAR-bound diazepam pose to allow linker access to free solution. Click chemistry was used to assemble the full-length diazepam.1DART.2 and leveraged an all-optical assay of endogenous GABAARs in primary neuronal culture, with ChR2 and GCaMP6s in the same cell.

[4] = test system: endogenous GABAARs; test: all-optical assay of GABAAR antagonism in primary neuronal culture; format: cell-based, rat
Experimental: as §1
Gabazine: Dissociated neurons were electroporated with constructs and cultured for 2 weeks. The assay was performed in the same BASE solution as described above, but with the addition of synaptic blockers CPP (NMDAR antagonist; Tocris) and NBQX (AMPAR antagonist; Abcam, ab120046) to isolate GABAR activity, and a small amount of GABA (GABAR agonist; Sigma) to ensure GABAR activity (=GABAR-BASE). […] Instead, a high dose of regular gabazine was used to completely silence any cells that may not have had realized full antagonism by the end of the assay. Imaging alignment, proof-reading and analysis were performed in a similar fashion to the AMPAR assay using MatLab.
It was next focused on blocking the GABAAR, a ubiquitous transducer of synaptic inhibition. […] The structure-activity literature of gabazine, a selective GABAAR antagonist, was explored. The core gabazine pharmacophore includes of a 3-amino, 6-phenoxy-pyridazine ring, with GABA embedded in the 2-position (2 butyric acid). Based on historical, low-potency predecessors of gabazine, a longer GABA moiety (2 pentanoic acid), and methyl substituents (e.g., 5-CH3) were explored (FIG. 2F). For each variant, the 6-phenoxy moiety was modified to make a gabazinealkyne module, which was click-conjugated to DART.2. Several variants were made, including gabazine.1^DART.2 (2 butyric acid, 5-H), gabazine.5DART.2 (2 pentanoic acid, 5-H), and gabazine.7DART.2 (2 pentanoic acid, 5-CH3). An all-optical assay of endogenous GABAARs in primary neuronal culture was then developed. […] Excitatory synapses were blocked, such that opto-stimulation with ChR2 became the only source of neural excitation.

[5] = test system: GABAAR; test: cerebellar slice voltage-clamp, tonic GABAAR current in granule cells; format: cell-based, mouse
Excerpt: (§2) (FIG. 4A) Validation of gabazine.1^DART.2 in cerebellar slice. Top: voltage-clamp schematic. Bottom: tonic GABAAR in granule cells expressing ^+HTP or ^ddHTP. […] Data are mean±SEM, cells normalized to baseline. (FIG. 4B) In vivo delivery of gabazine.1^DART.2 to cerebellar granule cells. Top right: schematic of experimental approach, GCaMP6f granule-cell activity obtained in the absence of sensory stimuli. Top left: example field of view, GCaMP6f signal averaged across trials. Bottom: example calcium traces (ΔF/F) in an awake ^+HTP mouse before (baseline) and after (1 μL of 1 μM gabazine.1^DART.2) infusion. (FIG. 4C) In vivo, 1 μL of 1 μM gabazine.1^DART.2 to ^+HTP mice. Color indicates ΔF/F, each row is one cell before (left) and after (right) gabazine.1^DART.2 infusion. […] (FIG. 4D) In vivo, 1 μL of 1 μM gabazine.1^DART.2 to ^ddHTP mice. Format as in panel C. […] (FIG. 4E) Validation of gabazine.7^DART.2 in VTA slice. Top: evoked-IPSC configuration. […] Data are mean±SEM, cells normalized to baseline. […] Data are mean±SEM, normalized to baseline speed of each animal.
Next, the feasibility of using DART.2 for GABAAR antagonism in live mice was explored. […] Whether this sparsity results from low excitatory drive, or high inhibitory GABAAR tone, has been difficult to address with prior tools. For example, one may attempt to reduce inhibition onto granule cells by silencing local GABA-producing neurons [golgi cells]. However, this would disinhibit local excitatory neurons [unipolar brush cells]. Thus the approach would inadvertently elevate excitatory drive onto granule cells, concomitant with the desired goal of reducing their inhibition, confounding interpretation. […] AAV DIO ^+HTPGPI or AAV DIO ^ddHTPGPI were expressed along with GCaMPxx in xxx-Cre mice; 2p. […] Next, in vivo experiments, using two-photon imaging of granule cells were performed.

[6] = test system: cerebellar granule cells; test: in vivo two-photon GCaMP imaging of cerebellar granule cells; design: species or system mouse; details: local infusion, 1 μL of 1 μM
Excerpt: as §2
Next, the feasibility of using DART.2 for GABAAR antagonism in live mice was explored. […] Whether this sparsity results from low excitatory drive, or high inhibitory GABAAR tone, has been difficult to address with prior tools. […]

SMILES: O=C(CCCn1c(=O)c(=O)[nH]c2cc([N+](=O)[O-])c(-n3ccnc3)cc21)NCCOCCOCCOCCOCCOCCOCc1cn(CCOCCOCCOCCOCCOCCOCCOCCOCCOCCOCCOCCOCCOCCOCCOCCOCCOCCOCCOCCOCCOCCOCCOCCOCCOCCOCCOCCOCCOCCOCCOCCOCCOCCOCCOCCOCCC(=O)NCCOCCOCCCCCCCl)nn1 [YM90K.1DART.1, 1-(4-(24-(7-(1H-imidazol-1-yl)-6-nitro-2,3-dioxo-3,4-dihydroquinoxalin-1 (2H)-yl)-21-oxo-2,5,8, 11, 14, 17-hexaoxa-20-azatetracosyl)-1H-1,2,3-triazol-1-yl)-N-(2-(2-((6-chlorohexyl)oxy)ethoxy)ethyl)-3,6,9, 12, 15, 18, 21, 24, 27, 30, 33, 36, 39, 42, 45, 48, 51, 54, 57, 60, 63, 66, 69, 72, 75, 78, 81, 84, 87, 90, 93, 96, 99, 102, 105, 108-hexatriacontaoxaundecahectan-111-amide]
- DW (t=15 m) [1]: 30

SMILES: COc1cc(CCCCl)ccc1CCOCCNC(=O)c1ccc(CNC(=O)CCOCCOCCOCCOCCOCCOCCOCCOCCOCCOCCOCCOCCOCCOCCOCCOCCOCCOCCOCCOCCOCCOCCOCCOCCOCCOCCOCCOCCOCCOCCOCCOCCOCCOCCOCCOCCn2cc(COCCOCCOCCOCCOCCOCCN3C(=O)CN=C(c4ccccc4)c4cc(Cl)ccc43)nn2)cc1 [diazepam.1DART.2, 1-(4-(19-(7-chloro-2-oxo-5-phenyl-2,3-dihydro-1H-benzo[e][1,4]diazepin-1-yl)-2,5,8, 11, 14, 17-hexaoxanonadecyl)-1H-1,2,3-triazol-1-yl)-N-(4-((2-(4-(3-chloropropyl)-2-methoxyphenethoxy)ethyl)carbamoyl)benzyl)-3,6,9,12, 15, 18,21,24,27, 30, 33, 36, 39, 42, 45, 48, 51, 54, 57, 60, 63, 66, 69, 72, 75, 78, 81, 84, 87, 90, 93, 96, 99, 102, 105, 108-hexatriacontaoxaundecahectan-111-amide]
- GABAAR evoked IPSC integral (total charge transfer) boost, +HTP cells [2]: 2 fold
- GABAAR evoked IPSC, ddHTP cells [2]: no effect on ddHTP RGCs
- GABAAR-mediated IPSC potentiation, +HTP RGCs [2]: significantly potentiated IPSCs
- GABAAR evoked IPSC, ddHTP cells ([2]; listed as diazepam.1^DART.2): not ^ddHTP cells
- DW (t=15 m) ([3]; Rx50/HTL50): ~750
- EC50 ([3]; read-out: HTL50 (t=15 m), +HTP neurons, 15 min): 40 nM
- EC50 ([3]; read-out: Rx50, ddHTP neurons, 5 µM GABA): 30000 nM

SMILES: COc1ccc(-c2ccc(=N)n(CCCC(=O)O)n2)cc1 [gabazine, reference compound]
- effect on +HTP vs ddHTP cells ([4]; traditional (non-DART) version): equally affected
- GABAAR current after subsequent application ([5]; traditional gabazine): blocks all GABAAR current

SMILES: COc1cc(CCCCl)ccc1CCOCCNC(=O)c1ccc(CNC(=O)CCOCCOCCOCCOCCOCCOCCOCCOCCOCCOCCOCCOCCOCCOCCOCCOCCOCCOCCOCCOCCOCCOCCOCCOCCOCCOCCOCCOCCOCCOCCOCCOCCOCCOCCOCCOCCn2cc(COCCOCCOCCOCCOCCOCCOCCCCCCOc3ccc(-c4ccc(=N)n(CCCC(=O)O)n4)cc3)nn2)cc1 [gabazine.1DART.2]
- DW (t=15 m) ([4]; ddHTP vs +HTP cells, 15 min, 15 uM GABA): 500
- GABAAR evoked IPSC block, +HTP cells [2]: blocked the GABAAR-mediated IPSC
- GABAAR evoked IPSC, ddHTP cells [2]: not on ^ddHTP cells
- GABAAR evoked IPSC block, +HTP cells ([2]; listed as gabazine.1^DART.2): blocked on ^+HTP cells
- GCaMP signals, ddHTP mice [6]: no impact on GCaMP signals
- granule cell activity, +HTP mice [6]: pronounced increase in +HTP granule cell activity
- tonic GABAAR current, +HTP granule cells ([5]; 100 nM): antagonizes the GABAAR in ^+HTP
- HTL50 (half-maximal tethering concentration at 15 min) ([5]; +HTP cells, tonic GABAAR current, read-out: HTL50 (t=15 m)): ~50 nM
- IC50 ([5]; read-out: Rx50, ddHTP cells, tonic GABAAR current): ~1000 nM
